Assay results taken from ChEMBL document CHEMBL5260810, “Inhibition of bromodomain-containing protein 9 for the prevention of epigenetically-defined drug resistance” (Bioorg Med Chem Lett, 2017).
Calls of active or inactive are those of the source. No cut-off for these calls is given here.

How the values were obtained:
MDA-MB-231 = test: Antiproliferative activity against human MDA-MB-231 cells assessed as reduction in colony formation upto 20 uM supplemented with fresh medium containing compound every 3 days for 9 days by MTT staining based clonogenic assay; assay type: functional, cell-based; settings: time 9.0 day
PC-9 = test: Antiproliferative activity against human PC-9 cells assessed as reduction in colony formation upto 20 uM supplemented with fresh medium containing compound every 3 days for 9 days by MTT staining based clonogenic assay; assay type: functional, cell-based; settings: time 9.0 day
Capan-2 = test: Antiproliferative activity against human Capan-2 cells assessed as reduction in colony formation up to 20 uM supplemented with fresh medium containing compound every 3 days for 9 days by MTT staining based clonogenic assay; assay type: functional, cell-based; settings: time 9.0 day
Pfeiffer = test: Cytotoxicity against human Pfeiffer cells measured after 8 days; assay type: functional, cell-based; settings: 192 h
A2058 = test: Antiproliferative activity against human A2058 cells assessed as reduction in colony formation upto 20 uM supplemented with fresh medium containing compound every 3 days for 9 days by MTT staining based clonogenic assay; assay type: functional, cell-based; settings: time 9.0 day
NCI-H460 = test: Antiproliferative activity against human NCI-H460 cells assessed as reduction in colony formation up to 20 uM supplemented with fresh medium containing compound every 3 days for 9 days by MTT staining based clonogenic assay; assay type: functional, cell-based; settings: time 9.0 day
A549 = test: Antiproliferative activity against human A549 cells assessed as reduction in colony formation up to 20 uM supplemented with fresh medium containing compound every 3 days for 9 days by MTT staining based clonogenic assay; assay type: functional, cell-based; settings: time 9.0 day
[1] = Cytotoxicity against human RKOE6 cells measured after 3 days; assay type: functional, cell-based; settings: RKOE6, 72 h
[2] = Cytotoxicity against human OV56 cells measured after 3 days; assay type: functional, cell-based; settings: OV56, 72 h
CAL-148 = test: Cytotoxicity against human CAL-148 cells measured after 3 days; assay type: functional, cell-based; settings: CAL-148, 72 h
ES-2 = test: Cytotoxicity against human ES2 cells measured after 3 days; assay type: functional, cell-based; settings: ES-2, 72 h
SW1573 = test: Cytotoxicity against human SW1573 cells measured after 3 days; assay type: functional, cell-based; settings: SW1573, 72 h
HEL = test: Cytotoxicity against human HEL cells measured after 3 days; assay type: functional, cell-based; settings: 72 h
PEO1 = test: Cytotoxicity against human PEO1 cells measured after 3 days; assay type: functional, cell-based; settings: PEO1, 72 h
MDA-MB-175-VII = test: Cytotoxicity against human MDA-MB-175-VII cells measured after 3 days; assay type: functional, cell-based; settings: 72 h
[3] = Cytotoxicity against human CoCM-1 cells measured after 3 days; assay type: functional, cell-based; settings: CoCM-1, 72 h
[4] = Cytotoxicity against human KP-3L cells measured after 3 days; assay type: functional, cell-based; settings: 72 h
[5] = Cytotoxicity against human HS-Sultan cells measured after 3 days; assay type: functional, cell-based; settings: 72 h
[6] = Cytotoxicity against human KMS-34 cells measured after 3 days; assay type: functional, cell-based; settings: KMS-34, 72 h
Calu-6 = test: Cytotoxicity against human Calu-6 cells after 8 days; assay type: functional, cell-based; settings: Calu-6, 192 h
OVCAR-5 = test: Cytotoxicity against human OVCAR-5 cells measured after 3 days; assay type: functional, cell-based; settings: OVCAR-5, 72 h
NCI-H647 = test: Cytotoxicity against human NCI-H647 cells measured after 3 days; assay type: functional, cell-based; settings: NCI-H647, 72 h
[7] = Cytotoxicity against human MOR cells measured after 3 days; assay type: functional, cell-based; settings: 72 h
SCC-3 = test: Cytotoxicity against human SCC-3 cells measured after 3 days; assay type: functional, cell-based; settings: SCC-3, 72 h
SK-MES-1 = test: Cytotoxicity against human SK-MES-1 cells measured after 3 days; assay type: functional, cell-based; settings: SK-MES-1, 72 h
[8] = Cytotoxicity against human OV7 cells measured after 3 days; assay type: functional, cell-based; settings: OV7, 72 h
786-0 = test: Cytotoxicity against human 786-0 cells measured after 3 days; assay type: functional, cell-based; settings: 786-0, 72 h
[9] = Cytotoxicity against human ATRFLOX cells measured after 3 days; assay type: functional, cell-based; settings: 72 h
TOV112D = test: Cytotoxicity against human TOV112D cells measured after 3 days; assay type: functional, cell-based; settings: 72 h
MC116 = test: Cytotoxicity against human MC116 cells measured after 3 days; assay type: functional, cell-based; settings: MC116, 72 h
SKM-1 = test: Cytotoxicity against human SKM-1 cells measured after 3 days; assay type: functional, cell-based; settings: SKM-1, 72 h
DOHH-2 = test: Cytotoxicity against human DOHH-2 cells measured after 3 days; assay type: functional, cell-based; settings: DOHH-2, 72 h
PC-3 = test: Cytotoxicity against human PC-3 cells measured after 3 days; assay type: functional, cell-based; settings: PC-3, 72 h
U-266 = test: Cytotoxicity against human U266B1 cells measured after 3 days; assay type: functional, cell-based; settings: U-266, 72 h
[10] = Cytotoxicity against human NCE-G 130 cells measured after 3 days; assay type: functional, cell-based; settings: NCE-G 130, 72 h
MOLM-13 = test: Cytotoxicity against human MOLM-13 cells measured after 3 days; assay type: functional, cell-based; settings: MOLM-13, 72 h
[11] = Cytotoxicity against human MCAS cells measured after 3 days; assay type: functional, cell-based; settings: 72 h
[12] = Cytotoxicity against human HCC3153 cells measured after 8 days; assay type: functional, cell-based; settings: HCC3153, 192 h
[13] = Cytotoxicity against human OCI-M2 cells measured after 3 days; assay type: functional, cell-based; settings: OCI-M2, 72 h
RMG-I = test: Cytotoxicity against human RMG-I cells measured after 3 days; assay type: functional, cell-based; settings: 72 h
RL = test: Cytotoxicity against human RL cells measured after 3 days; assay type: functional, cell-based; settings: 72 h
[14] = Cytotoxicity against human JHH-6 cells measured after 3 days; assay type: functional, cell-based; settings: JHH-6, 72 h
[15] = Cytotoxicity against human KMS-21BM cells measured after 3 days; assay type: functional, cell-based; settings: 72 h
CWR22R = test: Cytotoxicity against human 22Rv1 cells after 8 days; assay type: functional, cell-based; settings: 22Rv1, 192 h
Hep 3B2 = test: Cytotoxicity against human Hep 3B2.1-7 cells measured after 3 days; assay type: functional, cell-based; settings: Hep3B, 72 h
HBL-100 = test: Cytotoxicity against human HBL-100 cells measured after 3 days; assay type: functional, cell-based; settings: HBL-100, 72 h
SUP-B15 = test: Cytotoxicity against human SUP-B15 cells measured after 3 days; assay type: functional, cell-based; settings: SUP-B15, 72 h
ZR-75-1 = test: Cytotoxicity against human ZR-75-1 cells measured after 8 days; assay type: functional, cell-based; settings: ZR-75-1, 192 h
[16] = Cytotoxicity against human Karpas-620 cells measured after 3 days; assay type: functional, cell-based; settings: Karpas-620, 72 h
SR = test: Cytotoxicity against human SR cells measured after 3 days; assay type: functional, cell-based; settings: 72 h
[17] = Cytotoxicity against human COLO-704 cells measured after 3 days; assay type: functional, cell-based; settings: COLO 704, 72 h
SK-OV-3 = test: Cytotoxicity against human SK-OV-3 cells measured after 3 days; assay type: functional, cell-based; settings: SK-OV-3, 72 h
[18] = Lipophilicity, log D of the compound at pH 7.4; assay type: physicochemical; settings: buffer
[19] = Cytotoxicity against human HCC15 cells after 8 days; assay type: functional, cell-based; settings: HCC15, 192 h
PLC-PRF-5 = test: Cytotoxicity against human PLC-PRF-5 cells measured after 3 days; assay type: functional, cell-based; settings: PLC-PRF-5, 72 h
MDA-MB-415 = test: Cytotoxicity against human MDA-MB-415 cells measured after 8 days; assay type: functional, cell-based; settings: MDA-MB-415, 192 h
SW626 = test: Cytotoxicity against human SW626 cells measured after 3 days; assay type: functional, cell-based; settings: SW626, 72 h
[20] = Cytotoxicity against human COV413A cells measured after 3 days; assay type: functional, cell-based; settings: 72 h
SUD4 = test: Cytotoxicity against human SU-DHL-4 cells measured after 3 days; assay type: functional, cell-based; settings: SU-DHL-4, 72 h

C/C=C/Cn1cc(-c2ccc(C(C)(C)O)cc2OC)c2cc[nH]c2c1=O
Activity (MDA-MB-231): inactive
Activity (PC-9): Active
Activity (Capan-2): inactive
IC50 (Pfeiffer): 6.95 µM
Activity (A2058): inactive
Activity (NCI-H460): inactive
Activity (A549): inactive

C/C=C/Cn1cc(-c2cc(OC)c(C(=O)N3CCOCC3)cc2OC)c2cc(C)[nH]c2c1=O
IC50 [1]: 5 µM
IC50 [2]: 5 µM
IC50 (CAL-148): 5 µM
IC50 (ES-2): 5 µM
IC50 (SW1573): 5 µM
IC50 (HEL): 5 µM
IC50 (PEO1): 5 µM
IC50 (MDA-MB-175-VII): 5 µM
IC50 [3]: 5 µM
IC50 [4]: 5 µM
IC50 [5]: 5 µM
IC50 [6]: 5 µM
IC50 (Calu-6): 2 µM
IC50 (OVCAR-5): 5 µM
IC50 (NCI-H647): 5 µM
IC50 [7]: 5 µM
IC50 (SCC-3): 5 µM
IC50 (SK-MES-1): 5 µM
IC50 [8]: 5 µM
IC50 (786-0): 5 µM
IC50 [9]: 5 µM
IC50 (TOV112D): 5 µM
IC50 (MC116): 5 µM
IC50 (SKM-1): 5 µM
IC50 (DOHH-2): 5 µM
IC50 (PC-3): 5 µM
IC50 (U-266): 5 µM
IC50 [10]: 5 µM
IC50 (MOLM-13): 5 µM
IC50 [11]: 5 µM
IC50 [12]: 2 µM
IC50 [13]: 5 µM
IC50 (RMG-I): 5 µM
IC50 (RL): 5 µM
IC50 [14]: 5 µM
IC50 [15]: 5 µM
IC50 (CWR22R): 2 µM
IC50 (Hep 3B2): 5 µM
IC50 (HBL-100): 5 µM
IC50 (SUP-B15): 5 µM
IC50 (ZR-75-1): 2 µM
IC50 [16]: 5 µM
IC50 (SR): 5 µM
IC50 [17]: 5 µM
IC50 (SK-OV-3): 5 µM
logD [18]: 2.4
IC50 [19]: 2 µM
IC50 (PLC-PRF-5): 5 µM
IC50 (MDA-MB-415): 2 µM
IC50 (SW626): 5 µM
IC50 [20]: 5 µM
IC50 (SUD4): 5 µM
